# Laboratory results taken from patent EP4470536A1, “COMPOUND FOR USE IN TREATING FIBRODYSPLASIA OSSIFICANS PROGRESSIVA (FOP)” (Queen's University At Kingston, priority 2023, dated 2024).
# Columns and labels:
# [1] = Mapping a therapeutic window (ED50 versus MTD); format: in vivo; conditions: QD, own data compiled with mined literature data
# Description: For both palovarotene and compound 1 efficacy and toxicity were correlated to the pharmacokinetic parameters AUC (area under the curve), Cmax (maximum concentration detected following compound administration), and duration above EC50/IC50.This illustrated that efficacy was best predicted by duration above the EC50/IC50 (effective concentration for 50% response (in the case of palovarotene), or for 50% inhibition (in the case of compound 1)), whereas toxicity was best predicted by Cmax. […] For palovarotene, efficacy data from Example 7 and toxicity data from Example 8 above were compiled with mined data from the following publications: • Lindborg et al (2018). "Cartilage-derived retinoic acid-sensitive protein (CD-RAP): A stage-specific biomarker of heterotopic endochondral ossification (HEO) in fibrodysplasia ossificans progressiva (FOP)." Bone 109: 153-157. • Chakkalakal, S. A., et al. (2016). "Palovarotene Inhibits Heterotopic Ossification and Maintains Limb Mobility and Growth in Mice With the Human ACVR1(R206H) Fibrodysplasia Ossificans Progressiva (FOP) Mutation." J Bone Miner Res 31(9): 1666-1675. • Inubushi, T., et al. (2018). "Palovarotene Inhibits Osteochondroma Formation in a Mouse Model of Multiple Hereditary Exostoses." J Bone Miner Res 33(4): 658-666. • Lees-Shepard, J. B., et al. (2018). […] "Potent inhibition of heterotopic ossification by nuclear retinoic acid receptor-gamma agonists." Nat Med 17(4): 454-460.
# ectopic bone formation = test: Surgical mouse model of heterotopic ossification (rhBMP2-soaked collagen disk), micro-CT; format: in vivo, CD-1 mouse; conditions: Day 14
# Protocol: Heterotopic ossification (HO) driven by Bone Morphogenetic Protein (BMP) signaling has been used as a surrogate model for testing the effectiveness of drugs for treating Fibrodysplasia Ossificans Progressiva (FOP) (see, for example, Shimono K., et al. (2011). Nat Med 17, 454-460.). Collagen disks of 1mm in diameter were punched from a thin collagen foam matrix (Avitene™ Ultrafoam™ Collagen Hemostat product #1050050 lot #WBDP0038, from BD, Franklin Lakes, NJ, USA). Disks were impregnated with 1µg total of recombinant human BMP-2 (GenScript, Piscataway, NJ, USA, catalog #Z02913, lot #P50031712) on the day of surgery (5µl of 200ng/µL BMP-2, reconstituted in 20mM acetic acid solution). The rhBMP2-soaked collagen disk was surgically implanted into a small pocket made in the left gastrocnemius muscle of a 6-8 week-old male CD-1 mouse. Beginning on the day following surgery, mice were administered varying doses of compound 1 by oral gavage once daily (QD) or twice daily (every 12h; BID) for 13 days. Doses administered were: vehicle (Corn oil, QD (5M) and BID (3M) dosing or 3% DMSO in Corn oil (2M)), compound 1 18 mg/kg BID, 18 mg/kg QD, 6 mg/kg BID, 4.5 mg/kg BID, and 2 mg/kg BID (6M per group). Palovarotene high and low doses were used as comparators (1.76 mg/kg (4M) and 0.88 mg/kg QD (6M)). The palovarotene high and low doses were selected based on a study for palovarotene (Inubushi, T., et al. (2018). "Palovarotene Inhibits Osteochondroma Formation in a Mouse Model of Multiple Hereditary Exostoses." J Bone Miner Res 33(4): 658-666.), using oral treatment of mice. The inventors also verified the dose selection based on pharmacokinetic (PK) data generated in-house for palovarotene IP (intraperitoneal) and PO (oral) treatment by using the doses for IP treatment from Lees-Shepard, J. B., et al. (2018).
# At the study endpoint (Day 14: 16-30 hours after final compound treatment) left hindlimbs were removed and submitted to micro-CT (micro-computed tomography) imaging. Using this preclinical surgical model, the amount of resulting ectopic bone formation after 14 days was visualized for each of the treatment groups (Figure 6). The highly enhancing regions seen within the gastrocnemius muscle corresponded to the amount of ectopic bone formation generated at the site of collagen disk implantation, following 14 days of vehicle or drug treatment.
# The hindlimbs obtained in Example 6 above were submitted to micro-CT imaging. CT images were acquired using a VECTor^4CT pre-clinical scanner (MILabs B.V., Utrecht, Netherlands) equipped with a cone beam X-ray CT system. Scans were carried out with an acceleration voltage of 50 kVp and an X-ray tube current of 430 µA in accurate focus mode to obtain 3600 projections over a 360° scan. With a 40 ms exposure time per step, the total scan procedure took about 5 minutes with an estimated radiation dose of 3077 mGy. CT images were consequently processed using MILabs reconstruction software implementing a voxel size of 20 µm and a Hann projection filter of 25 µm to generate 3-dimensional CT images. For quantification, CT images were converted to DICOM® files using PMOD 3.9 software (PMOD Technologies Ltd., Zurich, Switzerland) for rendering using RadiAnt DICOM Viewer 4.2 software (Medixant, Poznań, Poland). The region-of-interest for all hindlimbs, reconstructed from DICOM files, was defined by outlining sites of ectopic ossification. Analysis of total ectopic bone volume was conducted via automated processes using the AnalyzePro software with the Bone Microarchitecture Analysis (BMA) add-on (AnalyzeDirect, Overland Park, Kansas). This software generates bone volume measurements from the defined area, as described by Bouxsein et al (2010). Journal of Bone and Mineral Research, 25(7), 1468-1486. Using this preclinical surgical model, the ability of compound 1 to inhibit HO (percentage from vehicle), as compared to palovarotene, was assessed and is shown in Figure 7 and in Table 1 below.
smiles,measurement,setting,value
"CC1(C)CCC(C)(C)c2cc(Cn3cccn3)c(/C=C/c3ccc(C(=O)O)cc3)cc21 [Palovarotene, palovarotene, reference compound]",ED50,[1]; Mus musculus,0.3 mg/kg
same,MTD,"[1]; mouse, in vivo",0.285 mg/kg
same,Mean bone volume (mm^3),ectopic bone formation; 0.88mg/kg,1.985 mm^3
same,percent change in HO volume from vehicle mean (%),ectopic bone formation; 0.88mg/kg,+2.5%
same,Mean bone volume (mm^3),ectopic bone formation; 1.76mg/kg QD,0.615 mm^3
same,percent change in HO volume from vehicle mean (%),ectopic bone formation; 1.76mg/kg QD,-68.2%
